Assay results from patent US4650799A, “Bis-dioxopiperazine derivatives, process for their preparation, antitumor agents comprising them and compositions containing them” (Zenyaku Kogyo Kabushiki Kaisha, priority 1983, dated 1987).

How the values were obtained:
[1] = tested on: P388 lymphocytic leukemia; test: Animal Test on P388 Lymphocytic Leukemia (increase in life span); assay type: in vivo, mice [CDF1 (BALB/c×DBA/2)]; conditions: Mus musculus, P388, ip, i.p.; for ILS at 20 mg/kg / ILS at 60 mg/kg: 216 h; for ILS at 20 mg/kg: 20 mg/kg × 9 days; for ILS at 200 mg/kg: 200 mg/kg × 2 (1st and 5th day); for ILS at 60 mg/kg: 60 mg/kg × 9 days
Protocol: The treated group to which the compound of the present invention was administered consisted of seven mice, while the control group consisted of ten mice. Six weeks old male mice [CDF1 (BALB/c×DBA/2), 25±2 g of body weight] were employed as host animals.
Tumor cells (1.0×10^6) of P388 lymphocytic leukemia were transplanted intraperitoneally into each mouse. The treatment began one day after the transplantation and the prescribed dose of each test compound was administered intraperitoneally to the mice once a day for 9 days or on the 1st and 5th day.
Antitumor activity of the test compound was evaluated by the rate of increase in life span (I.L.S.%) which was calculated with the following formula. [formula] T: mean survival time of treated mice C: mean survival time of control mice

B-16 melanoma = test: Animal Test on B-16 Melanoma (increase in life span); assay type: in vivo, mice [BDF1 (C57BL/6×DBA/2)]; conditions: Mus musculus, B16, ip, 192 h, i.p., 8 days; for ILS at 20 mg/kg: 20 mg/kg daily; for ILS at 30 mg/kg: 30 mg/kg daily
Protocol: The treated group to which the compound of the present invention was administered consisted of seven mice, while the control group consisted of ten mice. Six weeks old male mice [BDF1 (C57BL/6×DBA/2) 25±2 g of body weight] were employed as host animals.
Tumor cells (5×10^5) of B-16 melanoma were transplanted intraperitoneally into each mouse. The treatment began one day after the transplantation and the prescribed dose of each test compound was administered intraperitoneally to the mice once a day for 8 days.
Antitumor activity of the test compound was evaluated by the rate of increase in life span (I.L.S.%) which was calculated in the same manner as used in the animal test on P388 lymphocytic leukemia.

Acute Toxicity Test = conditions: mouse, in vivo
Protocol: The test group to which the compound of the present invention was administered consisted of ten mice. Five weeks old male mice (ddY, 23±2 g of body weight) were employed as test animals.

[2] = protic polar solvents such as water, lower alcohol; background statement on known compound; cited from earlier work
[3] = tested on: Colon adenocarcinoma No. 38; test: Animal Test on Colon Adenocarcinoma No. 38 (growth inhibition); assay type: in vivo, mice [BDF1 (C57BL/6×DBA/2)]; conditions: 60 mg/kg daily, orally, 8 days; tumor weight on 30th day
Protocol: (§1) Antitumor activities of bis-dioxopiperazine derivatives which the present invention concerns were verified by the growth inhibition or the increase of life span in experimental animals with syngenic tumors such as P388 lymphocytic leukemia, Lewis lung carcinoma, B-16 melanoma and Colon Adenocarcinoma No. 38 as shown below.
(§2) The treated group to which the compound of the present invention was administered consisted of seven mice, while the control group consisted of ten mice. Six weeks old male mice [BDF1 (C57BL/6×DBA/2), 25±2 g of body weight] were employed as host animals.
Tumor cells (40 mg of fragment) of Colon adenocarcinoma No. 38 were transplanted subcutaneously in inguinal region of each mouse. The treatment began one day after the transplantation and the prescribed dose of each test compound was administered orally to the mice once a day for 8 days.
On the 30th day after the transplantation, the tumors of all the mice were excised and weighed. Antitumor activity of the test compound was evaluated by the rate of growth inhibition (G.I.%) which was calculated in the same manner as used in the animal test on Lewis lung carcinoma.

Lewis lung carcinoma = test: Animal Test on Lewis Lung Carcinoma (growth inhibition, metastasis); assay type: in vivo, mice [BDF1 (C57BL/6×DBA/2)]; conditions: orally, 8 days, tumor weight on 20th day
Protocol: as §1, §2
Tumor cells (5×10^5) of Lewis lung carcinoma were transplanted subcutaneously in inguinal region of each mouse. The treatment began one day after the transplantation and the prescribed dose of each test compound was administered orally to the mice once a day for 8 days.
On the 20th day after the transplantation, the tumors of all the mice were excised and weighed. Antitumor activity of the test compound was evaluated by the rate of growth inhibition (G.I.%) which was calculated with the following formula. [formula] T: mean tumor weight of treated mice C: mean tumor weight of control mice

| SMILES | ILS at 20 mg/kg [1] [%] | ILS at 200 mg/kg [1] [%] | ILS at 20 mg/kg (B-16 melanoma) [%] | other results |
| --- | --- | --- | --- | --- |
| CCOC(=O)OCN1C(=O)CN(CCN2CC(=O)N(COC(=O)OCC)C(=O)C2)CC1=O [1,2-bis(4-ethoxycarbonyloxymethyl-3,5-dioxopiperazin-1-yl)ethane] | 48 | 45 | – | – |
| O=C(COc1ccc(Cl)cc1)OCN1C(=O)CN(CCN2CC(=O)N(COC(=O)COc3ccc(Cl)cc3)C(=O)C2)CC1=O [1,2-bis(4-p-chlorophenoxyacetoxymethyl-3,5-dioxopiperazin-1-yl)ethane] | 40 | 94 | – | – |
| O=C1CN(CCN2CC(=O)N(CN3CCOCC3)C(=O)C2)CC(=O)N1CN1CCOCC1 [1,2-bis(4-morpholinomethyl-3,5-dioxopiperazin-1-yl)ethane, reference compound] | 90 | – | 40 | LD50 (Acute Toxicity Test; ip, 14 days observation): 280 mg/kg; LD50 (Acute Toxicity Test; po): > 1000 mg/kg; stability in protic polar solvents [2]: extremely unstable in the protic polar solvents such as water, lower alcohol and so on; G.I. [3]: 72.8%; ILS at 100 mg/kg ([1]; 100 mg/kg × 2 (1st and 5th day)): 60%; G.I. (Lewis lung carcinoma; 60 mg/kg daily): 22.6% |
| COc1ccccc1C(=O)OCN1C(=O)CN(CCN2CC(=O)N(COC(=O)c3ccccc3OC)C(=O)C2)CC1=O [1,2-Bis(4-o-methoxybenzoyloxymethyl-3,5-dioxopiperazin-1-yl)ethane] | 113 | 99 | – | – |
| CC(=O)Oc1ccc(C=CC(=O)OCN2C(=O)CN(CCN3CC(=O)N(COC(=O)C=Cc4ccc(OC(C)=O)c(OC(C)=O)c4)C(=O)C3)CC2=O)cc1OC(C)=O [1,2-bis[4-(3,4-diacetoxycinnamoyloxymethyl)-3,5-dioxopiperazin-1-yl]ethane] | 35 | 51 | – | – |
| O=C(CSc1ccc(Br)cc1)OCN1C(=O)CN(CCN2CC(=O)N(COC(=O)CSc3ccc(Br)cc3)C(=O)C2)CC1=O [1,2-bis(4-p-bromophenylthioacetoxymethyl-3,5-dioxopiperazin-1-yl)ethane] | – | 108 | – | – |
| CC(C)(Oc1ccc(Cl)cc1)C(=O)OCN1C(=O)CN(CCN2CC(=O)N(COC(=O)C(C)(C)Oc3ccc(Cl)cc3)C(=O)C2)CC1=O [1,2-bis[4-(2-p-chlorophenoxy-2-methylpropionyloxymethyl)-3,5-dioxopiperazin-1-yl]ethane] | 63 | 114 | – | ILS at 30 mg/kg (B-16 melanoma): 86% |
| O=C(Cc1ccccc1Cl)OCN1C(=O)CN(CCN2CC(=O)N(COC(=O)Cc3ccccc3Cl)C(=O)C2)CC1=O [1,2-Bis(4-o-chlorophenylacetoxymethyl-3,5-dioxopiperazin-1-yl)ethane] | 65 | 83 | – | – |
| O=C(OCN1C(=O)CN(CCN2CC(=O)N(COC(=O)c3ccccc3Cl)C(=O)C2)CC1=O)c1ccccc1Cl [1,2-Bis(4-o-chlorobenzoyloxymethyl-3,5-dioxopiperazin-1-yl)ethane] | 55 | 90 | 65 | G.I. (Lewis lung carcinoma; 40 mg/kg daily): 43.7% |
| O=C(CCl)OCN1C(=O)CN(CCN2CC(=O)N(COC(=O)CCl)C(=O)C2)CC1=O [1,2-Bis(4-chloroacetoxymethyl-3,5-dioxopiperazin-1-yl)ethane] | 54 | 38 | 38 | G.I. (Lewis lung carcinoma; 50 mg/kg daily): 66.8% |
| O=C(OCN1C(=O)CN(CCN2CC(=O)N(COC(=O)c3ccco3)C(=O)C2)CC1=O)c1ccco1 [1,2-bis[4-(2-furoyloxymethyl)-3,5-dioxopiperazin-1-yl]ethane] | – | > 200 | 88 | – |
| O=C(OCN1C(=O)CN(CCN2CC(=O)N(COC(=O)c3cccs3)C(=O)C2)CC1=O)c1cccs1 [1,2-Bis[4-(2-thenoyloxymethyl)-3,5-dioxopiperazin-1-yl]ethane] | – | 118 | – | – |
| O=C(OCN1C(=O)CN(CCN2CC(=O)N(COC(=O)c3ccccc3)C(=O)C2)CC1=O)c1ccccc1 [1,2-bis(4-benzoyloxymethyl-3,5-dioxopiperazin-1-yl)ethane] | 68 | 107 | 87 | – |
| O=C(COc1cc(Cl)c(Cl)cc1Cl)OCN1C(=O)CN(CCN2CC(=O)N(COC(=O)COc3cc(Cl)c(Cl)cc3Cl)C(=O)C2)CC1=O [1,2-bis[4-(2,4,5-trichlorophenoxyacetoxymethyl)-3,5-dioxopiperazin-1-yl]ethane] | 65 | 94 | – | – |
| O=C(Cc1ccccc1)OCN1C(=O)CN(CCN2CC(=O)N(COC(=O)Cc3ccccc3)C(=O)C2)CC1=O [1,2-bis(4-phenylacetoxymethyl-3,5-dioxopiperazin-1-yl)ethane] | 143 | 204 | 83 | – |
| CC(C)(C)C(=O)OCN1C(=O)CN(CCN2CC(=O)N(COC(=O)C(C)(C)C)C(=O)C2)CC1=O [1,2-Bis(4-pivaloyloxymethyl-3,5-dioxopiperazin-1-yl)ethane] | 53 | 66 | – | – |
| COC(=O)OCN1C(=O)CN(CCN2CC(=O)N(COC(=O)OC)C(=O)C2)CC1=O [1,2-Bis(4-methoxycarbonyloxymethyl-3,5-dioxopiperazin-1-yl)ethane] | 75 | 103 | – | ILS at 30 mg/kg (B-16 melanoma): 78%; LD50 (Acute Toxicity Test; ip, 14 days observation): ~500 mg/kg; LD50 (Acute Toxicity Test; po): > 2000 mg/kg; G.I. (Lewis lung carcinoma; 60 mg/kg daily): 57.7% |
| CC(=O)OCN1C(=O)CN(CCN2CC(=O)N(COC(C)=O)C(=O)C2)CC1=O [1,2-Bis(4-acetoxymethyl-3,5-dioxopiperazin-1-yl)ethane] | 63 | 45 | 39 | LD50 (Acute Toxicity Test; ip, 14 days observation): > 1000 mg/kg; LD50 (Acute Toxicity Test; po): > 2000 mg/kg; G.I. [3]: 68.0%; ILS at 60 mg/kg [1]: 118%; G.I. (Lewis lung carcinoma; 60 mg/kg daily): 79.6% |
| O=C(OCN1C(=O)CN(CCN2CC(=O)N(COC(=O)c3ccccc3F)C(=O)C2)CC1=O)c1ccccc1F [1,2-bis(4-o-fluorobenzoyloxymethyl-3,5-dioxopiperazin-1-yl)ethane] | – | 113 | – | – |
| O=C(COc1ccc(Cl)cc1Cl)OCN1C(=O)CN(CCN2CC(=O)N(COC(=O)COc3ccc(Cl)cc3Cl)C(=O)C2)CC1=O [1.2-Bis[4-(2,4-dichlorophenoxyacetoxymethyl)-3,5-dioxopiperazin-1-yl]ethane] | 49 | 72 | 35 | ILS at 60 mg/kg [1]: 105% |
| COc1ccc(C=CC(=O)OCN2C(=O)CN(CCN3CC(=O)N(COC(=O)C=Cc4ccc(OC)cc4)C(=O)C3)CC2=O)cc1 [1,2-bis(4-p-methoxycinnamoyloxymethyl-3,5-dioxopiperazin-1-yl)ethane] | 78 | 36 | – | – |
| CC(C)COC(=O)OCN1C(=O)CN(CCN2CC(=O)N(COC(=O)OCC(C)C)C(=O)C2)CC1=O [1,2-bis(4-isobutoxycarbonyloxymethyl-3,5-dioxopiperazin-1-yl)ethane] | 78 | 138 | 86 | LD50 (Acute Toxicity Test; ip, 14 days observation): > 850 mg/kg; LD50 (Acute Toxicity Test; po): > 1000 mg/kg; G.I. [3]: 68.8%; ILS at 60 mg/kg [1]: 175%; G.I. (Lewis lung carcinoma; 50 mg/kg daily): 54.4% |
| O=C(CSc1ccc(F)cc1)OCN1C(=O)CN(CCN2CC(=O)N(COC(=O)CSc3ccc(F)cc3)C(=O)C2)CC1=O [1,2-bis(4-p-fluorophenylthioacetoxymethyl-3,5-dioxopiperazin-1-yl)ethane] | – | 120 | – | ILS at 40 mg/kg (B-16 melanoma; 40 mg/kg daily): 83% |
